According to patent US9447075B2, “Pyridazine derivatives as EAAT2 activators” (The Brigham and Women's Hospital, Inc., priority 2011, dated 2016):
Read-outs that look alike come from different tables or passages of the source.

Columns and labels:
[1] = tested on: EAAT2 mRNA; assay: EAAT2 mRNA in brain by quantitative real-time RT-PCR after i.p. administration; assay type: in vivo, mouse; conditions: FIG. 8D
Protocol: We next examined EAAT2 protein levels and glutamate uptake activities in brain following i.p. administration of Compound 212320 in C57BL/6 mice. Plasma membrane vesicles were prepared from mouse forebrains to measure functional EAAT2 protein. After a single i.p. dose of Compound 212320 at 40 mg/kg, EAAT2 protein levels and associated glutamate uptake increased to ˜1.5-2-fold at 2 hr and to ˜2-3-fold from 8 hr to 24 hr post-injection (FIG. 8B). Even at 72 hr, a ˜1.5 fold increase in EAAT2 protein levels could still be detected (data not shown). In addition, Compound 212320-induced EAAT2 protein levels and glutamate uptake were both dose-dependent (FIG. 8C). This induction was not due to transcriptional activation because EAAT2 mRNA was not increased as measured by quantitative real-time RT-PCR (FIG. 8D). We compared ceftriaxone (200 mg/kg), which increases EAAT2 expression through transcriptional activation, with Compound 212320 (40 mg/kg) that activates EAAT2 translation.

[2] = tested on: GFAP, GS, EAAT1, GAPDH, SOD1, actin, YB-1, RNA polymerase II, synaptophysin, EAAT3, EAAT4, PSD95, AKT, PI3K, IkB-α, ERK2; assay: Total protein and expression of other proteins (global protein synthesis); assay type: in vivo, mouse
Text: Furthermore, the following observations indicate that the effects of Compound 212320 on EAAT2 protein expression were not due to a general increase in protein synthesis. First, the total amount of protein in compound-treated cells and mice was not increased compared with that in vehicle-treated cells and mice. Secondly, we examined the expression of a variety of other proteins in mouse brains: astrocyte-specific proteins including GFAP, glutamine synthetase (GS), and EAAT1 (another astrocytic glutamate transporter subtype), several housekeeping proteins including GAPDH, SOD1, actin, YB-1, RNA polymerase II, several neuronspecific proteins including synaptophysin, EAAT3 (a neuronal glutamate transporter), EAAT4, PSD95, and several signaling proteins including AKT, PI3K, IkB-α and ERK2.

[3] = target: EphA5 (Homo sapiens, UniProt P54756); assay: Protein kinase profiling: EphA5; assay type: biochemical; conditions: read-out: EphA5 inhibited
Protocol: To assess Compound 212320's biological activity and selectivity, we performed an in vitro side effect profiling study. Seventy-one targets were tested at 10 μM in duplicate. These targets include neurotransmitter related receptors (30), steroids (2), ion channels (6), second messenger (1), prostaglandins (3), growth factors/hormones (4), brain/gut peptides (13), enzymes (5) and cytochrome p450 (7). […] Additionally, we performed a protein kinase profiling study. Compound 212320 was tested at 1 and 10 μM against 288 kinases. […] These studies indicate that Compound 212320 has high specificity and low side-effects/toxicity potential.

[4] = In vivo pharmacokinetic evaluation in male C57Bl/6 mice (LCMS/MS); parameters: species or system mouse; conditions: ip, single i.p. 3 mg/kg; for half-life: estimated
Protocol: Compound 212320 is compliant with Lipinski rules and lacks functionality that would predict overt toxicity or reactivity. This compound has a low molecular weight (293.38), cLogP value (3.28) and polar surface area (PSA) value (37.08 Å2) in the range typical of compounds that can penetrate the blood brain barrier. We conducted in vivo pharmacokinetic evaluation of LDN 212320 in male C57Bl/6 mice. After a single intraperitoneal (i.p.) administration of Compound 212320 (3 mg/kg), the plasma and brain concentrations were determined over an 8 hr period by LCMS/MS (FIG. 8A). […] The plasma and brain half-lives were estimated to be 2.63 and 2.64 hr, respectively. The average brain-to-plasma ratio was approximately 2 at all time points tested.

Sequence of EphA5 (P54756 25-1037, species assumed): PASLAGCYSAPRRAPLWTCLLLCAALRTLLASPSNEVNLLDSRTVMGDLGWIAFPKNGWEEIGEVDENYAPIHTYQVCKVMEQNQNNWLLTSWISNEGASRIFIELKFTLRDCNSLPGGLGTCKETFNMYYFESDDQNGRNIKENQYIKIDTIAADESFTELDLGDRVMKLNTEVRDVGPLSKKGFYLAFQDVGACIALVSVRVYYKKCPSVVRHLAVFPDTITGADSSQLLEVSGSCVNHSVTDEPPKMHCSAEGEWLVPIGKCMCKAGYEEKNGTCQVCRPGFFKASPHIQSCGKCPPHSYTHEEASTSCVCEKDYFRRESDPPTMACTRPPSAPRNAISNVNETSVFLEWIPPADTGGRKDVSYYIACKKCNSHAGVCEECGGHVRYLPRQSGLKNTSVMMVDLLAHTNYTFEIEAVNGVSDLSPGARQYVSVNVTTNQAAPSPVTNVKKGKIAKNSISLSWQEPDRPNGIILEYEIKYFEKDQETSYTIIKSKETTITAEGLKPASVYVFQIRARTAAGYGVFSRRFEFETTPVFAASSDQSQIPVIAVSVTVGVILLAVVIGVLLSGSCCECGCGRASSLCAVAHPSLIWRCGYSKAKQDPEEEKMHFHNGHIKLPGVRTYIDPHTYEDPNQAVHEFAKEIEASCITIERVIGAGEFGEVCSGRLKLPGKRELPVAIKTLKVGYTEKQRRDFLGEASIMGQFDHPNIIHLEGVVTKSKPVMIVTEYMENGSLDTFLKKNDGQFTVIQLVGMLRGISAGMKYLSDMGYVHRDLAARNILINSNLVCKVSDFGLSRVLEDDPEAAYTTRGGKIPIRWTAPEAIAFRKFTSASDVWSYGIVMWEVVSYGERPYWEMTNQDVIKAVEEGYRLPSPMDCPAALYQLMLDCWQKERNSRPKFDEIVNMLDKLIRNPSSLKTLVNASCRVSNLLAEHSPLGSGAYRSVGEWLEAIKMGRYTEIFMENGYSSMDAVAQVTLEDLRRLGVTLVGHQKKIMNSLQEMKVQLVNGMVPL

With `Cc1ccccc1CSc1ccc(-c2ccccn2)nn1` [Compound 7-4] the “EAAT2 mRNA” value [1] was “not increased”, the “Induction of other proteins in mouse brains” value ([2]; FIG. 8F) was “None of the above proteins were induced” and the “Total amount of protein vs vehicle” value ([2]; compound-treated cells and mice) was “not increased”. For the same molecule, the inhibition at 10 µM [3] was 44%, the Kp ([4]; male, C57Bl/6, mouse, brain, all time points tested, read-out: average brain-to-plasma ratio) was ~2 and the half-life ([4]; male, C57Bl/6, mouse, brain, read-out: Brain half-life (converted)) was 2.64 h. It also gave a half-life ([4]; male, C57Bl/6, mouse, plasma, read-out: Plasma half-life (converted)) of 2.63 h and a Cmax ([4]; mouse, in vivo, male C57Bl/6 mice) of 0.0421 ± 0.0036 µg/mL.
